Experimental data taken from ChEMBL document CHEMBL3585336, “Synthesis and evaluation of quinazoline amino acid derivatives as mono amine oxidase (MAO) inhibitors” (Bioorg Med Chem, 2015).

Legend:
[1] = biological target: T1, Amine oxidase [flavin-containing] A (Bos taurus, UniProt P21398); assay: Inhibition of bovine brain mitochondria MAO-A using serotonin substrate after 60 mins by fluorimetric method
T1 sequence (P21398 whole entry): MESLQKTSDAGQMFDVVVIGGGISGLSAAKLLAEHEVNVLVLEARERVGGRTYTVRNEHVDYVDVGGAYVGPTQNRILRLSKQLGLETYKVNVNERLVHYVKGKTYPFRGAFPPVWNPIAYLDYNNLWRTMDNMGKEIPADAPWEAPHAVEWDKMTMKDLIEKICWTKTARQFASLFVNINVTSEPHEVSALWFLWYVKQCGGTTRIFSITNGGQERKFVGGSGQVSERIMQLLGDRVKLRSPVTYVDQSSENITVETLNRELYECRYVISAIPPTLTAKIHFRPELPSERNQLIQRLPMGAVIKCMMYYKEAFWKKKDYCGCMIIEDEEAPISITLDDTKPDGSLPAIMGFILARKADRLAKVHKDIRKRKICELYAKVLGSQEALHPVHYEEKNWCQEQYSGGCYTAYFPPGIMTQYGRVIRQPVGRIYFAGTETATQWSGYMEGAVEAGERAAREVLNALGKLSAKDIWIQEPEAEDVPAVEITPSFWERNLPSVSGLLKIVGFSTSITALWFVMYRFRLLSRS

[2] = biological target: T2, Amine oxidase [flavin-containing] B (Bos taurus, UniProt P56560); assay: Inhibition of bovine brain mitochondria MAO-B using benzylamine substrate after 60 mins by fluorimetric method
T2 sequence (P56560 whole entry): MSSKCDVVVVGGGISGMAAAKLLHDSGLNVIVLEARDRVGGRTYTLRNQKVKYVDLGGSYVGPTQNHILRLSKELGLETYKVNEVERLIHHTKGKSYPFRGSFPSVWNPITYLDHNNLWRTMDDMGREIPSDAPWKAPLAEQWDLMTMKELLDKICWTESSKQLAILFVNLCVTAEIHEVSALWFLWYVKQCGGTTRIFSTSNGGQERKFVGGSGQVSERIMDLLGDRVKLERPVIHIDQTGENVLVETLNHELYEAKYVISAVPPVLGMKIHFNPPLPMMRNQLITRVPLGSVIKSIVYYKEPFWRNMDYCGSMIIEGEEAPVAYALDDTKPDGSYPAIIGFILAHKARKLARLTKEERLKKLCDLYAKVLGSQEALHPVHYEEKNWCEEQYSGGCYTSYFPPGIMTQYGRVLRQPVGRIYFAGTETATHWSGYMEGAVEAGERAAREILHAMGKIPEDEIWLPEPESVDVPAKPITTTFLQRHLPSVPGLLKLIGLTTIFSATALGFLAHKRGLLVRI

Mus musculus [3] = assay: Acute toxicity in mouse at 300 mg/kg, po after 24 hrs; assay type: organism-based; details: in vivo
Mus musculus [4] = assay: Acute toxicity in mouse at 125 mg/kg, ip after 24 hrs; assay type: organism-based; details: in vivo

| SMILES | IC50 [1] [µM] | IC50 [2] [µM] | Activity (Mus musculus [3]) | Activity (Mus musculus [4]) |
| --- | --- | --- | --- | --- |
| NNC(=O)CN1C(=O)c2ccccc2NC1c1ccccc1 (stereo unspecified) | 0.038 | 310 | Non-toxic | Non-toxic |
| NNC(=O)CCCN1C(=O)c2ccccc2NC1c1ccco1 (stereo unspecified) | 0.036 | 270 | Non-toxic | Non-toxic |
| COc1ccc(C2Nc3ccccc3C(=O)N2CC(=O)NN)cc1 (stereo unspecified) | 0.082 | 890 | Non-toxic | Non-toxic |
| COC(=O)CCN1C(=O)c2ccccc2NC1c1ccc(Cl)cc1 (stereo unspecified) | 0.098 | 720 | Non-toxic | Non-toxic |
| C#CCN(C)CCCOc1ccc(Cl)cc1Cl [CLORGILINE] | – | – | Non-toxic | Non-toxic |
| COC(=O)CNC(=O)c1ccccc1N | 0.052 | 850 | Non-toxic | Non-toxic |
| COC(=O)CCN1C(=O)c2ccccc2NC1c1ccc2c(c1)OCO2 (stereo unspecified) | 0.084 | 170 | Non-toxic | Non-toxic |
| NNC(=O)CCCN1C(=O)c2ccccc2NC1c1ccccc1 (stereo unspecified) | 0.047 | 370 | Non-toxic | Non-toxic |
| NNC(=O)CCCN1C(=O)c2ccccc2NC1c1ccc2c(c1)OCO2 (stereo unspecified) | 0.082 | 420 | Non-toxic | Non-toxic |
| COC(=O)CCN1C(=O)c2ccccc2NC1c1ccccc1 (stereo unspecified) | 0.092 | 860 | Non-toxic | Non-toxic |
| COC(=O)CN1C(=O)c2ccccc2NC1c1ccccc1 (stereo unspecified) | – | – | Non-toxic | Non-toxic |
| COC(=O)CN1C(=O)c2ccccc2NC1c1ccc2c(c1)OCO2 (stereo unspecified) | 0.061 | 740 | Non-toxic | Non-toxic |
| COC(=O)[C@H](Cc1ccccc1)NC(=O)c1ccccc1N | 0.038 | 680 | Non-toxic | Non-toxic |
| COC(=O)[C@H](C)NC(=O)c1ccccc1N | 0.063 | 410 | Non-toxic | Non-toxic |
| NNC(=O)CN1C(=O)c2ccccc2NC1c1ccc(Cl)cc1 (stereo unspecified) | 0.048 | 940 | Non-toxic | Non-toxic |
| COC(=O)C(C)N1C(=O)c2ccccc2NC1c1ccccc1 (stereo unspecified) | 0.039 | 460 | Non-toxic | Non-toxic |
| COC(=O)C(C)N1C(=O)c2ccccc2NC1c1ccc2c(c1)OCO2 (stereo unspecified) | 0.0028 | 86 | Non-toxic | Non-toxic |
| COC(=O)CN1C(=O)c2ccccc2NC1c1ccco1 (stereo unspecified) | 0.044 | 380 | Non-toxic | Non-toxic |
| COC(=O)CCNC(=O)c1ccccc1N | 0.062 | 560 | Non-toxic | Non-toxic |
| COC(=O)CCCCCN1C(=O)c2ccccc2NC1c1ccc2c(c1)OCO2 (stereo unspecified) | 0.084 | 820 | Non-toxic | Non-toxic |
